US20230346831A1, “METHODS FOR TREATING […] USING LOW DOSE CARBON MONOXIDE” (priority 2020, published 2023)
Values joined by “and” are separate entries in the source; they are usually repeats but may differ in a detail not shown here. Identical values can stand only once.

Test system: MDA-MB-231/TGL cells
Test: metabolomic assay (polar metabolite profiling, mass spectrometry)
Assay type: cell-based, human
Procedure: Cells were seeded in a 10 cm cell culture plate with DMEM containing 10% FBS, 0.2 mM L-glutamine and 1% penicillin/streptomycin. After 16 hours of incubation, metabolites were extracted from the cells using 80% methanol. The remaining steps were carried out with no change according to the methods of Goncalves et al, PNAS, 115:4, E743-E752 (2018). All data analyses were done using MetaboAnalyst.
7 × 10^6 cells were seeded in 10-cm cell culture plates with DMEM containing 10% FBS, 0.2 mM L-glutamine and 1% penicillin/streptomycin. Additionally, MCF7/TGL/pQ was cultured in media containing 0.5 µgml^-1 puromycin and 25 mM HEPES. After 16 hours of incubation, metabolites were extracted from the cells using 80% methanol. The remaining steps were carried out by Weill Cornell Medicine Proteomics and Metabolomics Core Facility according to M. D. Goncalves et al., Proc Natl Acad Sci USA 115, E743-E752 (2018). All data analyses were done using MetaboAnalyst 4.0 (www.metaboanalyst.ca/).
To investigate whether 250 ppm CO mimics hypoxia, the HiF1α protein levels were examined in CO treated MCF7/TGL and MDA-MB-231/TGL cells. […] To determine whether 250 ppm CO affects metabolism, polar metabolites were profiled using two breast cancer cell lines, MCF7/TGL and MDA-MB-231/TGL (FIGS. 7-9).

[1] = MDA-MB-231/TGL cells treated with CO (250 ppm), replicates CO 1-3

[C-]#[O+] [CO, Carbon monoxide]
cis-aconitic acid (MCF7/TGL and MDA-MB-231/TGL cells, 250 ppm CO, 16 hours): significantly downregulated
Peak Height of metabolite intensity: 2-Hydroxycaproic acid (HMDB01624) [1]: 244,811 and 833,959 and 281,142
Peak Height of metabolite intensity: 2-Hydroxyvaleric acid (HMDB01863) [1]: 621,532 and 904,968 and 786,820
Peak Height of metabolite intensity: 2-Ketobutyric acid (HMDB00005) [1]: 5,289,178 and 6,027,442 and 5,724,353
Peak Height of metabolite intensity: 2-Ketohexanoic acid (HMDB01864) [1]: 21,644,820 and 23,261,950
Peak Height of metabolite intensity: 3-Hydroxyhippuric acid (HMDB06116) [1]: 67,709 and 54,023 and 55,195
Peak Height of metabolite intensity: 3-Hydroxymethylglutaric acid (HMDB00355) [1]: 20,353,060 and 19,480,200 and 19,066,660
Peak Height of metabolite intensity: 3-Phosphoglyceric acid (HMDB00807) [1]: 2,076,132 and 820,562 and 843,315
Peak Height of metabolite intensity: 3-hydroxyhexadecanoic acid (HMDB61658) [1]: 119,550 and 182,677 and 362,311
Peak Height of metabolite intensity: 4-Acetamidobutanoic acid (HMDB03681) [1]: 438,862 and 501,312 and 487,324
Peak Height of metabolite intensity: 4-Hydroxybenzaldehyde (HMDB11718) [1]: 1,623,875 and 1,610,244 and 2,163,467
Peak Height of metabolite intensity: 5-Adenosylhomocysteine (HMDB00939) [1]: 502,295 and 543,231 and 555,202
Peak Height of metabolite intensity: 5-Thymidylic acid (HMDB01227) [1]: 1,061,384 and 1,368,086 and 1,260,084
Peak Height of metabolite intensity: 5′-Methylthioadenosine (HMDB01173) [1]: 1,678,515 and 1,980,683 and 3,013,280
Peak Height of metabolite intensity: 6-Phosphogluconic acid (HMDB01316) [1]: 394,956 and 515,553 and 654,253
Peak Height of metabolite intensity: 7-Methylguanosine (HMDB01107) [1]: 25,667 and 34,657 and 32,703
Peak Height of metabolite intensity: (R)-3-Hydroxydecanoic acid (HMDB10725) [1]: 88,715 and 193,751 and 99,729
Peak Height of metabolite intensity: ADP (HMDB01341) [1]: 4,962,730 and 5,529,189 and 5,002,783
Peak Height of metabolite intensity: ADP-glucose (HMDB06557) [1]: 84,781 and 90,192 and 99,689
Peak Height of metabolite intensity: AICAR (HMDB01517) [1]: 32,080 and 59,426
Peak Height of metabolite intensity: Acetylcholine (HMDB00895) [1]: 34,254,070 and 37,448,230 and 42,218,910
Peak Height of metabolite intensity: Acetylcysteine (HMDB01890) [1]: 3,133,666 and 3,527,413 and 3,894,968
Peak Height of metabolite intensity: Adenine (HMDB00034) [1]: 1,219,554 and 812,836 and 907,390
Peak Height of metabolite intensity: Adenosine (HMDB00050) [1]: 18,973,870 and 624,270 and 424,559
Peak Height of metabolite intensity: Adenosine monophosphate (HMDB00045) [1]: 6,997,849 and 8,959,282 and 6,609,897
Peak Height of metabolite intensity: Adenosine triphosphate (HMDB00538) [1]: 7,254,237 and 6,217,538 and 7,426,501
Peak Height of metabolite intensity: Allantoic acid (HMDB01209) [1]: 66,783 and 51,760 and 61,927
Peak Height of metabolite intensity: Allantoin (HMDB00462) [1]: 1,362,548 and 1,445,842 and 1,605,951
Peak Height of metabolite intensity: Alpha-Lactose (HMDB00186) [1]: 636,775 and 666,969 and 547,770
Peak Height of metabolite intensity: Aminoadipic acid (HMDB00510) [1]: 5,352,894 and 5,983,553 and 6,501,110
Peak Height of metabolite intensity: Arachidonic acid (HMDB01043) [1]: 219,569 and 129,238 and 117,457
Peak Height of metabolite intensity: Argininosuccinic acid (HMDB00052) [1]: 397,796 and 561,328 and 632,101
Peak Height of metabolite intensity: Asymmetric dimethylarginine (HMDB01539) [1]: 5,492,503 and 6,220,486 and 6,753,139
Peak Height of metabolite intensity: Betaine (HMDB00043) [1]: 126,207,200 and 122,297,900 and 134,080,700
Peak Height of metabolite intensity: Biotin (HMDB00030) [1]: 28,122 and 15,310
Peak Height of metabolite intensity: CDP (HMDB01546) [1]: 536,936 and 604,322 and 492,208
Peak Height of metabolite intensity: CDP-Ethanolamine (HMDB01564) [1]: 100,228 and 130,601 and 162,582
Peak Height of metabolite intensity: Caprylic acid (HMDB00482) [1]: 470,899 and 477,590 and 472,338
Peak Height of metabolite intensity: Carnosine (HMDB00033) [1]: 2,256,265 and 2,245,049 and 2,446,163
Peak Height of metabolite intensity: Choline (HMDB00097) [1]: 108,427,800 and 109,880,900 and 111,858,100
Peak Height of metabolite intensity: Citicoline (HMDB01413) [1]: 361,538 and 444,892 and 574,461
Peak Height of metabolite intensity: Citric acid (HMDB00094) [1]: 74,805,210 and 82,630,710 and 89,689,600
Peak Height of metabolite intensity: Citrulline (HMDB00904) [1]: 15,240,380 and 14,266,830 and 19,605,850
Peak Height of metabolite intensity: Coenzyme A (HMDB01423) [1]: 109,174 and 125,366 and 106,848
Peak Height of metabolite intensity: Creatine (HMDB00064) [1]: 123,445,200 and 119,145,800 and 129,072,700
Peak Height of metabolite intensity: Creatinine (HMDB00562) [1]: 23,236,710 and 23,501,360 and 25,483,820
Peak Height of metabolite intensity: Cytidine (HMDB00089) [1]: 225,855 and 258,465 and 227,521
Peak Height of metabolite intensity: Cytidine monophosphate (HMDB00095) [1]: 724,977 and 871,719 and 625,602
Peak Height of metabolite intensity: Cytidine triphosphate (HMDB00082) [1]: 183,937 and 215,682 and 295,169
Peak Height of metabolite intensity: D-2,3-Dihydroxypropanoic acid (HMDB31818) [1]: 2,140,143 and 2,437,835 and 2,431,980
Peak Height of metabolite intensity: D-2-Hydroxyglutaric acid (HMDB00606) [1]: 3,167,321 and 3,985,443 and 4,584,429
Peak Height of metabolite intensity: D-Arabitol (HMDB00568) [1]: 3,445,547 and 3,545,938 and 4,135,015
Peak Height of metabolite intensity: D-Fructose (HMDB00660) [1]: 6,135,849 and 6,547,945 and 7,210,193
Peak Height of metabolite intensity: D-Glucose (HMDB00122) [1]: 36,851,430 and 39,288,740 and 42,369,140
Peak Height of metabolite intensity: D-Glyceraldehyde 3-phosphate (HMDB01112) [1]: 6,590,523 and 2,998,173 and 3,562,678
Peak Height of metabolite intensity: D-Ribose 5-phosphate (HMDB01548) [1]: 624,479 and 581,839 and 786,584
Peak Height of metabolite intensity: D-Ribose (HMDB00283) [1]: 2,183,962 and 2,605,392 and 2,639,392
Peak Height of metabolite intensity: D-Sedoheptulose 7-phosphate (HMDB01068) [1]: 561,321 and 572,202 and 625,243
Peak Height of metabolite intensity: DL-O-Phosphoserine (HMDB01721) [1]: 185,294 and 163,584 and 141,059
Peak Height of metabolite intensity: Deoxyinosine (HMDB00071) [1]: 8,871 and 6,834 and 15,777
Peak Height of metabolite intensity: Deoxyribose 5-phosphate (HMDB01031) [1]: 50,751 and 42,917 and 52,112
Peak Height of metabolite intensity: Deoxyuridine (HMDB00012) [1]: 40,015 and 22,277 and 25,003
Peak Height of metabolite intensity: Dimethylglycine (HMDB00092) [1]: 10,914,430 and 13,334,130 and 17,506,690
Peak Height of metabolite intensity: Erythritol (HMDB02994) [1]: 598,716 and 590,438 and 628,349
Peak Height of metabolite intensity: Fructose 1,6-bisphosphate (HMDB01058) [1]: 10,176,490 and 12,986,490 and 13,433,710
Peak Height of metabolite intensity: Fructose 6-phosphate (HMDB00124) [1]: 2,660,942 and 2,572,195 and 2,965,940
Peak Height of metabolite intensity: Fumaric acid (HMDB00134) [1]: 8,464,455 and 9,727,776 and 11,821,440
Peak Height of metabolite intensity: GDP-glucose (HMDB03351) [1]: 92,740 and 103,248 and 99,915
Peak Height of metabolite intensity: Gluconic acid (HMDB00625) [1]: 37,957,970 and 52,856,170 and 64,673,460
Peak Height of metabolite intensity: Glucosamine 6-phosphate (HMDB01254) [1]: 529,990 and 692,898 and 945,530
Peak Height of metabolite intensity: Glucose 6-phosphate (HMDB01401) [1]: 2,103,241 and 2,833,469 and 3,624,968
Peak Height of metabolite intensity: Glutathione (HMDB00125) [1]: 99,156,710 and 109,797,600 and 130,505,000
Peak Height of metabolite intensity: Glycerol3-phosphate (HMDB00126) [1]: 758,556 and 825,062 and 1,025,018
Peak Height of metabolite intensity: Glycerophosphocholine (HMDB00086) [1]: 347,562,900 and 361,214,700 and 419,624,900
Peak Height of metabolite intensity: Glycine (HMDB00123) [1]: 45,296,030 and 53,615,700 and 58,796,920
Peak Height of metabolite intensity: Guanosine (HMDB00133) [1]: 619,336 and 155,195 and 131,494
Peak Height of metabolite intensity: Guanosine diphosphate (HMDB01201) [1]: 493,573 and 471,968 and 538,827
Peak Height of metabolite intensity: Guanosine monophosphate (HMDB01397) [1]: 465,594 and 655,797 and 560,973
Peak Height of metabolite intensity: Hippuric acid (HMDB00714) [1]: 47,961 and 38,230 and 36,149
Peak Height of metabolite intensity: Hypotaurine (HMDB00965) [1]: 6,754,939 and 7,052,286 and 8,446,435
Peak Height of metabolite intensity: Hypoxanthine (HMDB00157) [1]: 211,957 and 135,595 and 141,122
Peak Height of metabolite intensity: Imidazolelactic acid (HMDB02320) [1]: 128,804 and 165,439 and 221,241
Peak Height of metabolite intensity: Indolelactic acid (HMDB00671) [1]: 84,732 and 90,304 and 155,173
Peak Height of metabolite intensity: Inosine (HMDB00195) [1]: 2,168,084 and 318,912 and 236,433
Peak Height of metabolite intensity: Inosinic acid (HMDB00175) [1]: 178,233 and 246,521 and 243,587
Peak Height of metabolite intensity: Kynurenic acid (HMDB00715) [1]: 51,692 and 41,122 and 61,792
Peak Height of metabolite intensity: L-Acetylcarnitine (HMDB00201) [1]: 106,933,600 and 121,142,500 and 148,690,900
Peak Height of metabolite intensity: L-Arginine (HMDB00517) [1]: 31,387,180 and 29,265,460 and 31,837,150
Peak Height of metabolite intensity: L-Asparagine (HMDB00168) [1]: 21,992,250 and 21,453,690 and 27,389,900
